Where a name gives a salt, the structure may show the parent alone. One block for each compound: values may come before it.
Experiments:
[1] = Dissolution measurement assay (apparent solubility, non-sink) in FaSSIF solution (pH 6.5); conditions: for AUC/ 80 min. Mg/min/L: Area Under the Curve during 80 minutes dissolution in FaSSIF solution (pH 6.5)
Method: The medium was prepared in accordance with the manufacturer's instructions. The amount of powder added depends on the wished “total PKI concentration”. […] For other experiments, the drug load was first estimated by HPLC and the amount of powder to obtain the drug concentration was calculated.
Typically, the powder was added in a 8 mL glass bottle and 7 mL of solution was added (typically FaSSIF, FeSSIF or SGF). The glass bottle was put on a shaker (approximately 1 rotation per minute) for dissolution. Samples of 500 μl where taken after different times, and subsequently centrifuged at approximately 15000 g for 3 minutes. The resulting supernatant was then analyzed by HPLC (C18 column Eclipse, 4.6 mm×15 cm, 1 mL/min, detection at […]. Generally samples were taken after 5, 30 and 90 min and eventually 150 min.
(§1) A number of experiments were carried out, wherein nilotinib base or nilotinib HCl represented the protein kinase inhibitor. The experiments were carried out by measuring concentration of solubilized PKI (mg/L) after 5, 30 and 90 minutes dissolution in a solution at about pH 6.5, namely FaSSIF (Fasted State Simulated Intestinal Fluid). Further, experiments were carried out in an alternative solution at about pH 5, namely FeSSIF (Fed State Simulated Intestinal Fluid). Samples of the solution were taken at various time intervals and the amount of protein kinase inhibitor was measured by the dissolution measurement assay described above.
as §1, with “erlotinib” for “nilotinib base or nilotinib”, “PKI.” for “protein kinase inhibitor.”, “of” for “of solubilized”, “PKI” for “protein kinase inhibitor”
as §1, with “pazopanib” for “nilotinib base or nilotinib HCl”, “PKI.” for “protein kinase inhibitor.”, “of” for “of solubilized”, “PKI” for “protein kinase inhibitor”
(§2) A number of experiments were carried out, wherein lapatinib base or lapatinib ditosylate salt represented the PKI. The experiments were carried out by measuring concentration of PKI (mg/L) after 5, 30 and 90 minutes dissolution in a solution at about pH 6.5, namely FaSSIF (Fasted State Simulated Intestinal Fluid). Samples of the solution were taken at various time intervals and the amount of PKI was measured by the dissolution measurement assay described above.
as §2, with “gefitinib” for “lapatinib base or lapatinib ditosylate salt”, “3, 40” for “5, 30”, “80” for “90”
as §2, with “dasatinib” for “lapatinib base or lapatinib ditosylate salt”, “3, 40” for “5, 30”, “80” for “90”

[2] = Dissolution rate measurement in sink conditions, flow through cell system, FaSSIF, 37° C.; assay type: physicochemical; conditions: sink condition in FaSSIF; for Initial Dissolution Rate: initial slope of accumulated % solubilized vs time, 0 to 10 minutes, 37° C.
Method: Typically, said dissolution rate is measured by a flow through cell system in sink conditions, e.g., according to the US Pharmacopea (USP4). Dissolution measurement in sink conditions of hybrid nanoparticles may be measured in a method consisting of adding the wished amount of powder into a flow through cell system (SOTAX, Allschwill, Switzerland), mounting the cell onto its apparatus and then pumping the appropriate medium (typically FaSSIF, FeSSIF, SGF) through the powder. The temperature of the apparatus is typically set to 37° C. The amount of powder added into the cell depends on drug load of the powder: The exact amount of powder can be calculated from results obtained from drug load analysis of the powders. The PKI may be added into the flow through cell and a flow rate between 5 and 25 ml medium/min is pumped through the powder. […] Samples are typically taken after 0, 0.5, 1, 1.5, 2, 3, 4, 5, 6, 7, 8, 9, 10, 15, 20, 25, 30, 35 and 40 min from the moment the medium comes out from the flow through cell. The accumulated % solubilized of the amount of active substance added into the flow through cell can be calculated and plotted against time (min). The initial slope (“initial dissolution rate”, representing 0-10 minutes) of the graph may be estimated and taken as the dissolution rate of the material in sink condition at 37° C. in the given dissolution medium.
Typically, said dissolution rate is measured by a flow through cell system, for instance in sink conditions. […] The temperature of the apparatus is typically set to 37° C. The amount of powder added into the cell depends on drug load of the powder: The exact amount of powder can be calculated from results obtained from drug load analysis of the powders. The PKI may be added into the flow through cell and a flow rate between 5 and 25 ml medium/min is pumped through the powder. […] Samples are typically taken after 0, 0.5, 1, 1.5, 2, 3, 4, 5, 6, 7, 8, 9, 10, 15, 20, 25, 30, 35 and 40 min from the moment the medium comes out from the flow through cell. The accumulated % solubilized of the amount of active substance added into the flow through cell, can be calculated and plotted against time (min). The initial slope (“initial dissolution rate”, representing 0-10 minutes) of the graph can be estimated and taken as the dissolution rate of the material in sink condition at 37° C. in the given dissolution medium.
Dissolution measurement in sink conditions of compositions of the invention were measured in a method consisting of adding the wished amount of powder into a flow through cell system (SOTAX, Allschwill, Switzerland), mounting the cell onto its apparatus and then pumping the appropriate medium (typically FaSSIF, FeSSIF, SGF) through the powder. The temperature of the apparatus was set to 37° C. The amount of powder added into the cell depends on drug load of the powder: The exact amount of powder was calculated from results obtained from drug load analysis of the powders.
Typically, 3.5 to 7 mg PKI was added into the flow through cell and a flow rate between 8 and 16 ml medium/min (preferably about 8 ml medium/min) was pumped through the powder. One ml samples of the medium passing through the cell were collected at predetermined times. […] Samples were taken after 0, 0.5, 1, 1.5, 2, 3, 4, 5, 6, 7, 8, 9, 10, 15, 20, 25, 30, 35 and 40 min from the moment the medium comes out from the flow through cell. The accumulated % solubilized of the amount of active substance added into the flow through cell was calculated and plotted against time (min). The initial slope (“initial dissolution rate”) of the graph was estimated, as measured during 0 to 10 minutes, and taken as the dissolution rate of the material in sink condition at 37° C. in the given dissolution medium.

[3] = nilotinib HCl, FaSSIF solution (pH 6.5), after 30 minutes dissolution, HCl

% solubilized 30 min. [1, 3]: 0.20% | AUC/ 90 min. Mg/min/L ([1]; nilotinib, FaSSIF solution (pH 6.5), Area Under the Curve during 90 minutes dissolution, HCl): 13.0 Mg/min/L
Structure (SMILES): Cc1cn(-c2cc(NC(=O)c3ccc(C)c(Nc4nccc(-c5cccnc5)n4)c3)cc(C(F)(F)F)c2)cn1 [Exp 1, Nilotinib HCl]

% solubilized 30 min. [1, 3]: 0.04%
Structure (SMILES): Cc1cn(-c2cc(NC(=O)c3ccc(C)c(Nc4nccc(-c5cccnc5)n4)c3)cc(C(F)(F)F)c2)cn1 [Exp 2, Nilotinib HCl]

% solubilized 30 min. [1, 3]: 0.03%
Structure (SMILES): Cc1cn(-c2cc(NC(=O)c3ccc(C)c(Nc4nccc(-c5cccnc5)n4)c3)cc(C(F)(F)F)c2)cn1 [Exp 3, Nilotinib HCl]

% solubilized 30 min. ([1]; nilotinib HCl, FaSSIF solution (pH 6.5), after 30 minutes dissolution): 0.50%
Structure (SMILES): Cc1cn(-c2cc(NC(=O)c3ccc(C)c(Nc4nccc(-c5cccnc5)n4)c3)cc(C(F)(F)F)c2)cn1 [Exp 4, Nilotinib Base]

Conc (mg/L) 90 min ([1]; 90 min, pH 6.5): 4.6 mg/L | % solubilized 30 min. ([1]; erlotinib HCl, FaSSIF solution (pH 6.5), 30 min dissolution): 0.6% | AUC/ 90 min. ([1]; erlotinib HCl, FaSSIF solution (pH 6.5), AUC during 90 min dissolution): 837 Mg/min/L
Structure (SMILES): C#Cc1cccc(Nc2ncnc3cc(OCCOC)c(OCCOC)cc23)c1 [Exp 58, erlotinib HCl]

% solubilized 30 min. ([1]; 30 min, pH 6.5): 2.4% | Conc (mg/L) 90 min ([1]; 90 min, pH 6.5): 15.0 mg/L
Structure (SMILES): Cc1ccc(Nc2nccc(N(C)c3ccc4c(C)n(C)nc4c3)n2)cc1S(N)(=O)=O [Exp 84, pazopanib]

Conc (mg/L) 5 min ([1]; lapatinib, 5 minutes dissolution in FaSSIF solution (pH 6.5)): 2.9 mg/L | Conc (mg/L) 30 min ([1]; lapatinib, 30 minutes dissolution in FaSSIF solution (pH 6.5)): 6.0 mg/L | Conc (mg/L) 90 min ([1]; lapatinib, 90 minutes dissolution in FaSSIF solution (pH 6.5)): 6.5 mg/L | AUC/ 90 min. Mg/min/L ([1]; lapatinib, Area Under the Curve during 90 minutes dissolution in FaSSIF solution (pH 6.5)): 494 Mg/min/L | % solubilized 30 min. ([1]; lapatinib, after 30 minutes dissolution in FaSSIF solution (pH 6.5)): 0.3%
Structure (SMILES): CS(=O)(=O)CCNCc1ccc(-c2ccc3ncnc(Nc4ccc(OCc5cccc(F)c5)c(Cl)c4)c3c2)o1 [Exp 110, lapatinib base]

AUC/ 80 min. Mg/min/L ([1]; gefitinib): 5967 Mg/min/L
Structure (SMILES): COc1cc2ncnc(Nc3ccc(F)c(Cl)c3)c2cc1OCCCN1CCOCC1 [Exp 131, gefitinib]

AUC/ 80 min. Mg/min/L ([1]; dasatinib): 2396 Mg/min/L | % solubilized 40 min. ([1]; dasatinib, after 40 minutes dissolution in FaSSIF solution (pH 6.5)): 6.0%
Structure (SMILES): Cc1nc(Nc2ncc(C(=O)Nc3c(C)cccc3Cl)s2)cc(N2CCN(CCO)CC2)n1 [Exp 138, dasatinib]

Conc (mg/L) 40 min ([1]; 40 min, pH 6.5): 343.51 mg/L
Structure (SMILES): CNC(=O)c1cc(Oc2ccc(NC(=O)Nc3ccc(Cl)c(C(F)(F)F)c3)cc2)ccn1 [Exp 142, sorafenib tosylate]

Conc (mg/L) 3 min ([1]; pH 6.5): 0.6 mg/L | Conc (mg/L) 40 min ([1]; 40 min, pH 6.5): 0.6 mg/L | Conc (mg/L) 80 min ([1]; pH 6.5): 0.6 mg/L | AUC/ 80 min. Mg/min/L ([1]; axitinib): 4.7 Mg/min/L | % solubilized 40 min. ([1]; axitinib, after 40 minutes dissolution in FaSSIF solution (pH 6.5)): 0.1%
Structure (SMILES): CNC(=O)c1ccccc1Sc1ccc2c(/C=C/c3ccccn3)n[nH]c2c1 [Exp 157, axitinib]

Conc (mg/L) 3 min ([1]; pH 6.5): 0.3 mg/L | % solubilized 40 min. ([1]; 40 min, pH 6.5): 0.1% | Conc (mg/L) 40 min ([1]; 40 min, pH 6.5): 0.3 mg/L | Conc (mg/L) 80 min ([1]; pH 6.5): 0.4 mg/L
Structure (SMILES): CCCS(=O)(=O)Nc1ccc(F)c(C(=O)c2c[nH]c3ncc(-c4ccc(Cl)cc4)cc23)c1F [Exp 164, vemurafenib]

Initial Dissolution Rate [2]: 0.27
Structure (SMILES): Cc1cn(-c2cc(NC(=O)c3ccc(C)c(Nc4nccc(-c5cccnc5)n4)c3)cc(C(F)(F)F)c2)cn1 [Exp 500, nilotinib HCl]

Initial Dissolution Rate [2]: 2.2
Structure (SMILES): COc1cc2ncnc(Nc3ccc(F)c(Cl)c3)c2cc1OCCCN1CCOCC1 [Exp 540, gefitinib]

Initial Dissolution Rate [2]: 0.47
Structure (SMILES): CNC(=O)c1cc(Oc2ccc(NC(=O)Nc3ccc(Cl)c(C(F)(F)F)c3)cc2)ccn1 [Exp 560, sorafenib tosylate]

Initial Dissolution Rate [2]: 6.6
Structure (SMILES): C[C@@H](Oc1cc(-c2cnn(C3CCNCC3)c2)cnc1N)c1c(Cl)ccc(F)c1Cl [Exp 570, crizotinib]

Accumulated % of solubilized of remaining active substance at a given time (min) ([2]; 0 min): 0.2% | Accumulated % of solubilized of remaining active substance at a given time (min) ([2]; 0.5 min): 0.4% | Accumulated % of solubilized of remaining active substance at a given time (min) ([2]; 1 min): 0.7% | Accumulated % of solubilized of remaining active substance at a given time (min) ([2]; 1.5 min): 1.0% | Accumulated % of solubilized of remaining active substance at a given time (min) ([2]; 2 min): 1.3% | Accumulated % of solubilized of remaining active substance at a given time (min) ([2]; 3 min): 1.8% | Accumulated % of solubilized of remaining active substance at a given time (min) ([2]; 4 min): 2.2% | Accumulated % of solubilized of remaining active substance at a given time (min) ([2]; 5 min): 2.6% | Accumulated % of solubilized of remaining active substance at a given time (min) ([2]; 6 min): 3.0% | Accumulated % of solubilized of remaining active substance at a given time (min) ([2]; 7 min): 3.4% | Accumulated % of solubilized of remaining active substance at a given time (min) ([2]; 8 min): 3.8% | Accumulated % of solubilized of remaining active substance at a given time (min) ([2]; 9 min): 4.2% | Accumulated % of solubilized of remaining active substance at a given time (min) ([2]; 10 min): 4.6% | Accumulated % of solubilized of remaining active substance at a given time (min) ([2]; 20 min): 8.8%
Structure (SMILES): CNC(=O)c1cc(Oc2ccc(NC(=O)Nc3ccc(Cl)c(C(F)(F)F)c3)cc2)ccn1.Cc1ccc(S(=O)(=O)O)cc1 [Experiment 560]
